In brackets after ≈: the same amount, converted by molar mass. Read-outs that look alike come from different tables or passages of the source.
How the values were obtained:
[1] = tested on: S. aureus ATCC49775; test: Membrane potential, DiOC2(3) fluorescence; format: cell-based, Staphylococcus aureus; conditions: 16 μg/ml, pre-incubated 5 min; versus untreated and ampicillin
Procedure: To further examine the mechanism underlying the perturbation of the cell membrane of S. pneumoniae or S. aureus by the NCL compounds, the membrane potential of the cells was measured by fluorescence spectrometry using (DiOC2(3), essentially as described previously. Briefly, […] cells from an overnight HBA plate were grown in Todd-Hewitt broth supplemented with 1% yeast extract (THY) at 37°C, 5% CO2 until A600 nm = 0.5. […] The cuvette was then placed in a LS 55 Fluorescence Spectrometer (PerkinElmer) set at Ex. 488 nm/Em. 620 nm, with excitation and emission slit widths at 5 nm and 7 nm, respectively). […] All assays were performed at least twice.

[2] = tested on: Enterococcus faecalis ATCC 29212; test: MIC, broth micro-dilution (CLSI), control strain; format: cell-based
Procedure: MICs for NCL812 and its analogs (serial two-fold dilutions commencing at 128 μg/ml) were determined (in duplicate) in round bottom 96-well microtitre trays (Sarstedt 82.1582.001), using the broth micro-dilution method recommended by the Clinical and Laboratory Standards Institute (CLSI). […] MIC50, MIC90 and MIC range for NCL812, NCL195 and NCL219 were calculated against each S. pneumoniae, S. aureus or VRE isolate. To assess the potential activity of NCL195 against Gram-negative bacteria, MICs against Acinetobacter spp, E. coli, K. pneumoniae, P. aeruginosa, Proteus spp and Neisseria meningitidis were performed in the presence or absence of 0.08 mM-20 mM EDTA in a standard checkerboard assay.

[3] = tested on: human red blood cells; test: Haemolysis assay; format: cell-based; conditions: 1 h, 37°C; highest concentration used 128 μg/ml
Procedure: This was performed using fresh donor human red blood cells (RBCs), essentially as described previously. Fresh RBCs were washed in PBS three times at 500 × g for 5 min, and then resuspended 1% (w/v) in PBS. […] Thereafter, 198 μL of the 1% RBC solution was added into each well, and the mixture incubated for 1 h at 37°C, with shaking at 100 rpm. Quadruplicate wells containing either 1% Triton X100, or PBS only, served as controls. After incubation, the trays were centrifuged at 1,000 × g for 3 min and 100 μl of supernatant from each well transferred into a new 96-well tray. Absorbance was measured at A450 nm on a Multiskan Ascent 354 Spectrophotometer (Labsystems) and plotted against each dilution. Haemolytic titer was determined as the reciprocal of the dilution at which 50% of erythrocytes were lysed at A450 nm. The experiment was performed twice.

[4] = tested on: panel of mammalian cell lines (Caco-2, HEL 299, Hep G2, MDBK, MCF7); test: In vitro cytotoxicity, WST-1, all cell lines tested; format: cell-based; conditions: lower bound over all the cell lines tested
Text: (§1) In order to ensure minimal off target mammalian cell cytotoxicity, we assayed NCL812, NCL195 and NCL219 for in vitro cytotoxicity using a panel of adherent mammalian cell lines: Caco-2 (human colorectal adenocarcinoma cell line), HEL 299 (non-cancerous human lung fibroblast cell line), Hep G2 (human hepatocellular carcinoma cell line), MDBK (normal bovine kidney cell line) and MCF7 (human mammary gland adenocarcinoma cell line). Cell lines were maintained in Dulbecco’s Modified Eagle’s Medium (DMEM; […] After 24 h incubation, media was removed, washed once with medium without antibiotics and fresh medium supplemented with 10% (vol/vol) FBS was added. […] Following exposure for 24 h, WST-1 reagent was added to each well at a final concentration of 10%. […] The IC50 value for each compound against each cell line was determined via non-linear regression (three parameters) using GraphPad Prism v6 software. The robustness of assays was confirmed with selected cell lines (Hep G2 and MDBK) seeded onto a 96–well Microwell Nunclon Delta Surface plate (Thermo Scientific Nunc; Cat No: 136101) at 5 × 10^4 cells per well.

[5] = tested on: S. aureus; test: MIC, broth micro-dilution (CLSI); format: cell-based, Staphylococcus aureus; conditions: for MIC / MIC50 / MIC90: Staphylococcus aureus; for MIC50 / MIC90: S2 Table isolates
[6] = tested on: S. aureus Xen29; test: Minimum bactericidal concentration (MBC); format: cell-based; conditions: Staphylococcus aureus, 99.9% colony count reduction
Procedure: The tray was covered with Breathe-Easy sealing membrane (Z380059, Sigma-Aldrich) and incubated for 16 h overnight at 35°C in an EnSpire Multimode Plate Reader 2300 (PerkinElmer), with data collected every 20 min and 2 sec agitation at 60 rpm between data (A600 nm) acquisitions. The experiment was repeated using the luminescent D39LUX strain on a Cytation 5 Cell Imaging Multi-Mode Reader (BioTek) using IsoplateTM-96 F tray PerkinElmer, 6005020). Kill kinetic assays on S. aureus Xen29 was carried out essentially as described for MIC determination on Cytation 5 Cell Imaging Multi-Mode Reader.
In order to determine the MBC of each compound against S. pneumoniae D39 or S. aureus Xen29, 10 μl aliquots from each duplicate well from the MIC assays (starting from the MIC for each compound) was inoculated onto a HBA plate and incubated at 37°C (+ 5% CO2 for S. pneumoniae D39). Plates were examined at 24 and 48 h and the MBC was recorded as the lowest concentration of each test compound at which a 99.9% colony count reduction was observed on the plate.

[7] = tested on: MDBK; test: In vitro cytotoxicity, WST-1; format: cell-based, bovine; conditions: Bos taurus, 24 h exposure, read-out: IC50 values ± SEM
Text: as §1

[8] = tested on: Hep G2; test: Real-time cell viability, RealTime-Glo MT; format: cell-based, human; conditions: 2 or 8 μg/ml, up to 20 h post-treatment
[9] = LogD by gradient HPLC chromatographic method; format: physicochemical; conditions: pH 7.4

C/C(=N\NC(=N)N/N=C(\C)c1ccc(C(C)(C)C)cc1)c1ccc(C(C)(C)C)cc1 [NCL219, (E)-N'-((E)-1-(4-(tert-butyl)phenyl)ethylidene)-2-(1-(4-(tert-butyl)phenyl)ethylidene)hydrazine-1-carboximidhydrazide]
Effect on generated membrane potential [1]: large reduction in the magnitude of the generated membrane potential
MIC ([2]; ATCC29212, 10% FBS): 8 µg/mL
MIC ([2]; ATCC29212, absence of FBS): 2 µg/mL
50% haemolysis titre (HC50) [3]: 6 µg/mL
IC50 [4]: > 7 µg/mL
Fold increase of MIC range in the presence of 10% FBS ([5]; 10% FBS versus no FBS): remained essentially the same
MIC ([5]; ATCC 12600 / MSSA, ATCC12600 [Xen29] (MSSA), 10% FBS): 4 µg/mL (≈ 9.86 µM)
MIC ([5]; ATCC 12600 / MSSA, ATCC12600 [Xen29] (MSSA), absence of FBS): 32 µg/mL (≈ 78.9 µM)
MIC ([5]; ATCC 29213 / MSSA, ATCC29213 MSSA (ST5), 10% FBS, read-out: MIC): 8 µg/mL (≈ 19.7 µM)
MIC ([5]; ATCC 29213 / MSSA, ATCC29213 MSSA (ST5), absence of FBS, read-out: MIC): 16 µg/mL (≈ 39.4 µM)
MIC ([5]; ATCC 49775 / MSSA, ATCC 49775 (MSSA), 10% FBS, read-out: MIC): 4 µg/mL (≈ 9.86 µM)
MIC ([5]; ATCC 49775 / MSSA, ATCC 49775 (MSSA), absence of FBS, read-out: MIC): 32 µg/mL (≈ 78.9 µM)
MIC ([5]; IRISH 1 – HA-EMRSA (ST8), 10% FBS, read-out: MIC): > 64 µg/mL
MIC ([5]; IRISH 1 – HA-EMRSA (ST8), absence of FBS, read-out: MIC): > 64 µg/mL
MIC ([5]; IRISH 2 – HA-EMRSA (ST8), 10% FBS, read-out: MIC): 8 µg/mL (≈ 19.7 µM)
MIC ([5]; IRISH 2 – HA-EMRSA (ST8), absence of FBS, read-out: MIC): 32 µg/mL (≈ 78.9 µM)
MIC ([5]; MRSA / USA300, USA 300 - MRSA (ST8), 10% FBS, read-out: MIC): 4 µg/mL (≈ 9.86 µM)
MIC ([5]; MRSA / USA300, USA 300 - MRSA (ST8), absence of FBS, read-out: MIC): > 64 µg/mL
MIC ([5]; MRSA, AUS2-MRSA (ST239), 10% FBS, read-out: MIC): 8 µg/mL (≈ 19.7 µM)
MIC ([5]; MRSA, AUS2-MRSA (ST239), absence of FBS, read-out: MIC): > 64 µg/mL
MIC ([5]; MRSA, AUS3-MRSA (ST239), 10% FBS, read-out: MIC): 8 µg/mL (≈ 19.7 µM)
MIC ([5]; MRSA, AUS3-MRSA (ST239), absence of FBS, read-out: MIC): 64 µg/mL (≈ 158 µM)
MIC ([5]; MRSA, BENGAL BAY PVL+ – CA-MRSA (ST772), absence of FBS): 16 µg/mL (≈ 39.4 µM)
MIC ([5]; MRSA, Classic–HA-MRSA (ST250), 10% FBS, read-out: MIC): 32 µg/mL (≈ 78.9 µM)
MIC ([5]; MRSA, Classic–HA-MRSA (ST250), absence of FBS, read-out: MIC): 32 µg/mL (≈ 78.9 µM)
MIC ([5]; MRSA, NY JAPAN – HA MRSA (ST5), 10% FBS, read-out: MIC): 4 µg/mL (≈ 9.86 µM)
MIC ([5]; MRSA, NY JAPAN – HA MRSA (ST5), absence of FBS, read-out: MIC): > 64 µg/mL
MIC ([5]; MRSA, ST398–CA-MRSA-V (ST398), 10% FBS, read-out: MIC): > 64 µg/mL
MIC ([5]; MRSA, ST398–CA-MRSA-V (ST398), absence of FBS, read-out: MIC): > 64 µg/mL
MIC ([5]; MRSA, WA2–CA-MRSA (ST78), absence of FBS, read-out: MIC): > 64 µg/mL
MIC ([5]; MRSA, WA3–CA-MRSA (ST5), absence of FBS, read-out: MIC): > 64 µg/mL
MIC ([5]; MRSA, WA84–CA-MRSA (ST45), 10% FBS, read-out: MIC): 8 µg/mL (≈ 19.7 µM)
MIC ([5]; MRSA, WA84–CA-MRSA (ST45), absence of FBS, read-out: MIC): > 64 µg/mL
MIC50 ([5]; 10% FBS): 8 µg/mL (≈ 19.7 µM)
MIC90 ([5]; 10% FBS): > 64 µg/mL
MIC50 ([5]; absence of FBS): 64 µg/mL (≈ 158 µM)
MIC90 ([5]; absence of FBS): > 64 µg/mL
MIC ([5]; TAIWAN PVL+ – CA-cMRSA (ST59), 10% FBS, read-out: MIC): 32 µg/mL (≈ 78.9 µM)
MIC ([5]; TAIWAN PVL+ – CA-cMRSA (ST59), absence of FBS, read-out: MIC): > 64 µg/mL
MIC ([5]; UK 15 PVL+ – HA-EMRSA (ST22), 10% FBS, read-out: MIC): 4 µg/mL (≈ 9.86 µM)
MIC ([5]; UK 15 PVL+ – HA-EMRSA (ST22), absence of FBS, read-out: MIC): 32 µg/mL (≈ 78.9 µM)
MIC ([5]; UK 15 – HA-EMRSA (ST22), 10% FBS, read-out: MIC): 8 µg/mL (≈ 19.7 µM)
MIC ([5]; UK 15 – HA-EMRSA (ST22), absence of FBS, read-out: MIC): 64 µg/mL (≈ 158 µM)
MIC ([5]; UK 16 – HA- EMRSA (ST36), 10% FBS, read-out: MIC): 4 µg/mL (≈ 9.86 µM)
MIC ([5]; UK 16 – HA- EMRSA (ST36), absence of FBS, read-out: MIC): 32 µg/mL (≈ 78.9 µM)
MIC ([5]; UK 17 – HA-EMRSA (ST247), 10% FBS, read-out: MIC): 16 µg/mL (≈ 39.4 µM)
MIC ([5]; UK 17 – HA-EMRSA (ST247), absence of FBS, read-out: MIC): 64 µg/mL (≈ 158 µM)
MBC [6]: 16 µg/mL (≈ 39.4 µM)
IC50 [7]: 16 ± 0.2 µg/mL (≈ 39.4 µM)
Effect on cell viability (real-time) [8]: had a demonstrable effect on viability at 2 μg/ml
chromatographic logD [9]: > 5.3
